Results taken from patent publication US20240050406A1, “COMPOSITION COMPRISING OXIRACETAM FOR PREVENTING OR TREATING MUSCULAR DISEASE” (KSB TUGEN INC., priority 2021, published 2024).

Assays:
C2C12 myotubes [1] = experiment: Myotube diameter in doxorubicin-induced cachexia cell model (Experimental Example 8); format: cell-based, mouse; conditions: doxorubicin 500 nM 48 h with or without oxiracetam 0.01, 0.1, 1, 10 and 30 μM; relative to control
Procedure: A mouse-derived C2C12 cell line was provided from the American Type Culture Collection (ATCC, CRL-1772; Manassas, VA, USA) and cultured at 37° C. in 5% CO2. In the proliferation phase of the cells before differentiation, high concentration glucose Dulbecco's modified Eagle's medium (DMEM) containing 1% penicillin/streptomycin and 10% fetal bovine serum (FBS) medium were used, and in the differentiation induction, the FBS medium was replaced with a 2% horse serum (HS)-containing medium. The C2C12 myoblasts were seeded into a 96 well culture plate and a 6 well culture plate at 2×10^5/well and 5×10^3/well, respectively, and cultured at 37° C. in a CO2 incubator. […]
Two days after anticancer agent and oxiracetam treatment, the anticancer agent-treated group (Doxorubicin), the oxiracetam-treated groups (Oxiracetam 0.01 μM, 0.1 μM, 1 μM, 10 μM and 30 μM), and the control (control) were photographed using an optical microscope at a room temperature, and the diameter (Diameter, %) of a myotube in each group was measured and compared.
(§1) Statistical processing was performed using GraphPad Prism (GraphPad Software Inc., San Diego, CA, USA). The results of each repeated experiment were expressed as mean±standard error of mean, and analyzed using the analysis of variance (Tukey's test), and statistical significance was acknowledged when the P-value was 0.05 or less.

[2] = system: animal model in which muscular atrophy is induced by dexamethasone; experiment: Comparison with dementia drugs in dexamethasone muscular atrophy model (Experimental Example 5); format: in vivo, ICR mice
Description: For an experimental group in the present invention, oxiracetam having a structure of Formula 1 was purchased from Tokyo Chemical Industry (Japan; Product No. 00398, CAS RN:62613-82-5, purity: 96%) and used. Mirtazapine and olanzapine were purchased from Tokyo Chemical Industry (Japan, Product Nos. M2151, 00393, purity: 96%) and used.
As experimental animals, 7-week-old male ICR mice were purchased and used. Until the day of the experiment, general feed (EEGJ30060: Cargill Agri Purina, Seongnam, Korea) and water were sufficiently supplied to the experimental animals, and the animals were acclimated for 1 week under an environment of a temperature of 23±2° C., a humidity of 55±10%, and a light-dark cycle of 12 hours-12 hours and used in the experiment.
After the acclimation period for the experimental animals, to create a muscular atrophy model, the mice were randomly divided into groups of 7 animals, such as a control (vehicle, n=7), a dexamethasone-treated group (n=7), and a drug-administered group (n=7). The groups except for the control were intraperitoneally injected dexamethasone at a dose of 10 mg/kg from day 7 to day 21 for 14 days. In the case of the drug-administered group, 7 days before the intraperitoneal administration of dexamethasone, the drug was orally administered using a Zonde needle at a dose of 30 or 10 mg/kg/day once a day for 21 days. During the same period, the control was administered no drug, and 100 μL of normal saline was orally administered at a time. To the dexamethasone-treated group (dexamethasone excipient, CMC), instead of the drug, 100 μL of a 0.5% carboxymethylcellulose (CMC) solution was administered. This is to set the effect on the excipient as a blank.
To measure grip strength, a grip strength test was performed. The maximum force presented when the forelimbs of an animal model of each group could no longer hold the rod by pulling the tail horizontally while holding the tail of the animal model and holding the rod of a device with both front paws was considered to be grip strength (N). Grip strength adaptation training was performed at least three times before drug administration. After measurement before drug administration (day 0) and on day 20 after drug administration began, grip strength variation (%) after drug administration began (day 20) with respect to that before drug administration (day 0) was calculated.
The lean body mass of the gastrocnemius muscle (GS) and the lean body mass of the tibialis anterior (TA) for each group were measured every 7 days. Specifically, animal models of each group were anesthetized using 3% isoflurane, fixed to a photographing bed and then photographed. During photographing, the respiratory rates and body temperatures of the animal models were measured with an animal monitoring system (SA Instruments, USA).
The whole body of the animal model was photographed through dual energy X-ray absorptiometry (DEXA) using iNSiGHT VET DXA (Osteosys, KR), and the lean body mass of each of the gastrocnemius muscle (GS) and the tibialis anterior (TA) was measured and calculated from the two-dimensional images of the gastrocnemius muscle (GS) and the tibialis anterior (TA) by a program using the region of interest (ROI).
as §1

C2C12 myotubes [3] = experiment: Myotube diameter in TNF-α muscular atrophy cell model (Experimental Example 7); format: cell-based, mouse; conditions: TNF-α 10 ng/ml 48 h with oxiracetam 10 μM or 0 μM; relative to non-treated control
Procedure: A mouse-derived C2C12 cell line was provided from the American Type Culture Collection (ATCC, CRL-1772; Manassas, VA, USA) and cultured at 37° C. in 5% CO2. In the proliferation phase of the cells before differentiation, high concentration glucose Dulbecco's modified Eagle's medium (DMEM) containing 1% penicillin/streptomycin and 10% fetal bovine serum (FBS) medium were used, and in the differentiation induction, the FBS medium was replaced with a 2% horse serum (HS)-containing medium. The C2C12 myoblasts were seeded into a 96 well culture plate and a 6 well culture plate at 2×10^5/well and 5×10^3/well, respectively, and cultured at 37° C. in a CO2 incubator. When the confluency reached approximately 90%, the medium was replaced with 2% horse serum (HS)-containing DMEM to induce differentiation of myoblasts. After 5 days, the C2C12 myotubes that had differentiated were treated with 10 ng/ml TNF-α, which is an inflammatory factor, for 48 hours to cause myotube atrophy, thereby creating a muscular atrophy cell model, TNF-α-treated group (TNF-α). During the TNF-α treatment, 10 μM oxiracetam was treated to create an oxiracetam-treated group (Oxiracetam 10 μM), cells that were not treated during the same period were prepared as a control. Two days after TNF-α and oxiracetam treatment, each of the TNF-α-treated group (TNF-α), the oxiracetam-treated group (Oxiracetam 10 μM) and the control was treated with an ATP detection reagent at room temperature, and then luminescence was measured using a mitochondrial ToxGlo™ assay kit (Promega). In addition, the TNF-α-treated group (TNF-α), the oxiracetam-treated group (Oxiracetam 10 μM) and the control were photographed using an optical microscope and the diameter of a myotube cell in each group were measured and compared. Statistical processing was performed using GraphPad Prism (GraphPad Software Inc., San Diego, CA, USA).

[4] = oxiracetam 30, mirtazapine 10, olanzapine 10 mg/kg/day oral 21 days + dexamethasone, DEXA every 7 days

With `COc1cccc2c1C(=O)c1c(O)c3c(c(O)c1C2=O)C[C@@](O)(C(=O)CO)C[C@@H]3O[C@H]1C[C@H](N)[C@H](O)[C@H](C)O1` [Doxorubicin, doxorubicin] the diameter of myotube (C2C12 myotubes [1]) was “significantly decreased”.

With `CN1CCN2c3ncccc3Cc3ccccc3C2C1` (centres unmarked) [mirtazapine] the “change in grip strength” value ([2]; oxiracetam 30, mirtazapine 10, olanzapine 10 mg/kg/day oral 21 days + dexamethasone 10 mg/kg i.p. day 7-21) was “reduced”, the “lean body mass of the gastrocnemius muscle (GS)” value [2, 4] was “not recovered but rather reduced” and the “lean body mass of the tibialis anterior (TA)” value [2, 4] was “not recovered but rather reduced”.

For TNF-α, the “diameter of a myotube relative to control” value (C2C12 myotubes [3]) was “greatly reduced to half the level of the control”.
